The text below walks through data of patent publication EP2062885A1, “Acid addition salts of imatinib and formulations comprising the same” (priority 2007, dated 2009).

The subject of series [1] is Rabbit. As to conditions: cited from earlier work.
The test system of series [2] is Rat. As to conditions: cited from earlier work.
Series [3] has as its system Mouse. As to conditions: cited from earlier work.
Series [4] can be described thus: Non-hygroscopicity test (stability chambers, water content by Karl Fischer method). Type of series: physicochemical. To be noted: for Final Moisture Content After 24hrs / Initial Moisture Content: Karl Fischer; for hygroscopic properties: assessment in words, comparable to α and β forms of imatinib mesylate; for Initial Moisture Content: before storage in stability chamber.
Experimental: The water contents were measured by a well known method, namely Karl Fischer method for determining water quantities.

Series [5] deals with Quail. As to conditions: Oral; cited from earlier work.

For orientation: LD50 means the dose at which mortality reaches 50%.

Structures can show the parent of a compound that is named as a salt. Where two headings read alike, the source gives them in different places.

Consider `N[C@@H](CC(=O)O)C(=O)O` [Aspartic acid], for which the LD50 in series [1] (Skin) is on record as 5000 mg/kg; in series [2] (Oral, Rat) it was 5000 mg/kg.

Consider `CC1(C)C2CCC1(CS(=O)(=O)O)C(=O)C2` (stereo not drawn) [Camphor sulfonic acid], for which the LD50 in series [3] (Subcutaneous, Mouse) is 2502 mg/kg.

Turning to `CCCCCCCCCC(=O)O` [Capric acid], the LD50 is reported as 1770 mg/kg in series [1] (Oral) and 3730 mg/kg in series [2] (Oral, Rat).

For the compound `Cc1ccc(NC(=O)c2ccc(CN3CCN(C)CC3)cc2)cc1Nc1nccc(-c2cccnc2)n1.O=C(O)c1cc(=O)[nH]c(=O)[nH]1` [Imatinib Orotate, 4-[(4-Methyl-1-piperazinyl)methyl]-N-[4-methyl-3-[[4-(3-pyridinyl)-2-pyrimidinyl]amino]phenyl]-benzamide, orotate], the “Final Moisture Content After 24hrs” value in series [4] (25°C at humidity of 60%) and in series [4] (40 °C at humidity of 75%) was 0.7% throughout. Also, in series [4], the hygroscopic properties entry is given as “considerably low hygroscopic”. For the same compound, the “Initial Moisture Content” value in series [4] stood at 0.4%.

Turning to `Cc1ccc(NC(=O)c2ccc(CN3CCN(C)CC3)cc2)cc1Nc1nccc(-c2cccnc2)n1` [Imatinib Oxalate, 4-[(4-Methyl-1-piperazinyl)methyl]-N-[4-methyl-3-[[4-(3-pyridinyl) -2-pyrimidinyl]amino]phenyl]-benzamide, oxalate], the “Final Moisture Content After 24hrs” value in series [4] (25°C at humidity of 60%) was 3.4%. For the same compound, the “Final Moisture Content After 24hrs” value in series [4] (40 °C at humidity of 75%) was 3.6%. Moreover, in series [4], the hygroscopic properties entry is listed as “considerably low hygroscopic” and the “Initial Moisture Content” value amounted to 1.6%.

`CCCCCCCCCCCC(=O)O` [Lauric acid]: the LD50 in series [3] (mouse, in vivo, iv) is given as 131 mg/kg; in series [2] (Oral, Rat), 12000 mg/kg.

Turning to `CS(=O)(=O)O` [Methanesulfonic acid, reference compound], the LD50 in series [5] is 1000 mg/kg; in series [2] (rat, in vivo, po), 200 mg/kg.

As to `CCCCCCCC/C=C\CCCCCCCC(=O)O` [Oleic acid], the LD50 in series [3] (Intraperitoneal, Mouse) is 282 mg/kg; in series [3] (Intravenous, Mouse) it was 230 mg/kg; in series [2] (Oral, Rat) it was 74000 mg/kg.

For the compound `O=C(O)c1cc(=O)[nH]c(=O)[nH]1` [Orotic acid], the LD50 in series [3] (mouse, in vivo, ip) is 841 mg/kg; in series [3] (mouse, in vivo, iv), 770 mg/kg; in series [3] (mouse, in vivo, po) it was 2000 mg/kg.

As for `O=C(O)Cc1ccccc1` [Phenyl acetic acid], the LD50 in series [2] (Intraperitoneal, Rat) is 1600 mg/kg; in series [2] (Oral, Rat), 2250 mg/kg.

With `Cc1ccc(S(=O)(=O)O)cc1` [p-Toluene sulfonic acid], the median lethal dose (LD50) in series [3] (Oral, Mouse) was 400 mg/kg; in series [2] (Oral, Rat), 2480 mg/kg.
